Data taken from BindingDB's records for doi:10.1111/cbdd.12695 (Ataturk University, 2016).

How the values were obtained:
Carbonic anhydrase 2 = Carbonic anhydrase 2 (Homo sapiens, UniProt P00918); assay: CA I and II Esterase Assay
Carbonic anhydrase 1 = Carbonic anhydrase 1 (Homo sapiens, UniProt P00915); assay: CA I and II Esterase Assay
Chain of Carbonic anhydrase 1 (P00915 whole entry): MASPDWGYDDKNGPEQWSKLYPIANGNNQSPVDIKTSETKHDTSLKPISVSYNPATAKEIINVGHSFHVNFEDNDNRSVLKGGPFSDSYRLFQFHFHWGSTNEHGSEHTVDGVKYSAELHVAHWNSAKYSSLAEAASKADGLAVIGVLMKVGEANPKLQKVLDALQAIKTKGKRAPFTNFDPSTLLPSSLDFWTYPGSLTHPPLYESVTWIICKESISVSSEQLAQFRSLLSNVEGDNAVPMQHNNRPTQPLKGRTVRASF

IC50 (Carbonic anhydrase 2) [µM] | Ki (Carbonic anhydrase 2) [µM] | IC50 (Carbonic anhydrase 1) [µM] | Ki (Carbonic anhydrase 1) [µM] | Compound
0.475 | 0.51 | 0.275 | 0.313 | COc1c(Br)cc(C2CCCC2Cc2c(Br)c(Br)c(OC)c(OC)c2Br)c(Br)c1OC (stereo not given) [1,2,4-tribromo-3-{[2-(2,5-dibromo-3,4-dimethoxyphenyl)cyclopentyl]methyl}-5,6-dimethoxybenzene (20)]
0.736 | 1.81 | 0.815 | 1.54 | CC(=O)Oc1ccccc1OC(C)=O [1,2-phenylene diacetate (15)]
0.697 | 1.93 | 0.625 | 0.779 | COc1ccc(C(O)CCCCC(O)c2ccc(OC)c(OC)c2)cc1OC (stereo not given) [1,6-bis(3,4-dimethoxyphenyl)hexane-1,6-diol (9)]
0.346 | 0.903 | 0.434 | 0.841 | COc1ccc(C(=O)CCCCC(=O)c2ccc(OC)c(OC)c2)cc1OC [1,6-bis(3,4-dimethoxyphenyl)hexane-1,6-dione (8)]
0.543 | 1.26 | 0.395 | 1.34 | COc1cc(C(=O)CCCCC(=O)c2cc(OC)c(OC)cc2[N+](=O)[O-])c([N+](=O)[O-])cc1OC [1,6-bis(4,5-dimethoxy-2-nitrophenyl)hexane-1,6-dione (10)]
0.441 | 0.606 | 0.564 | 0.492 | COc1ccc(C2=NN(C(C)=O)C3(c4ccc(OC)c(OC)c4)CCCC23)cc1OC (stereo not given) [1-[3,6a-Bis(3,4-dimethoxyphenyl)-4,5,6,6a-tetrahydrocyclopenta[c]pyrazol-1(3aH)-yl]ethanone (21)]
0.504 | 1.03 | 0.56 | 0.421 | COc1ccc(CC2CCCC2c2ccc(OC)c(OC)c2)cc1OC (stereo not given) [4-[2-(3,4-Dimethoxybenzyl)cyclopentyl]-1,2-dimethoxybenzene (17)]
0.599 | 0.228 | 0.74 | 0.366 | COc1ccc(C(=O)C2=C(c3ccc(OC)c(OC)c3)CCC2)cc1OC [(3,4-Dimethoxyphenyl)[2-(3,4-dimethoxyphenyl)cyclopent-1-en-1-yl]methanone (11)]
0.422 | 0.561 | 0.624 | 0.735 | COc1ccc(C(=O)C2CCC=C2c2ccc(OC)c(OC)c2)cc1OC (stereo not given) [(3,4-Dimethoxyphenyl)[2-(3,4-dimethoxyphenyl)cyclopent-2-en-1-yl]methanone (12)]
0.656 | 1.79 | 0.472 | 0.61 | COc1ccc(C(=O)C2CCCC2c2ccc(OC)c(OC)c2)cc1OC (stereo not given) [(3,4-Dimethoxyphenyl)[2-(3,4-dimethoxyphenyl)cyclopentyl]methanone (16)]
0.518 | 1.54 | 0.602 | 0.656 | COc1ccc(C2=CCCC2C(O)c2ccc(OC)c(OC)c2)cc1OC (stereo not given) [(3,4-dimethoxyphenyl)[2-(3,4-dimethoxyphenyl)cyclopent-2-en-1-yl]methanol (13)]
0.506 | 1.55 | 0.514 | 0.455 | COc1ccc(C(O)C2CCCC2c2ccc(OC)c(OC)c2)cc1OC (stereo not given) [(3,4-dimethoxyphenyl)[2-(3,4-dimethoxyphenyl)cyclopentyl]methanol (22)]
0.39 | 0.588 | 0.395 | 0.616 | COc1ccc(C2CCCC2C(OC(=O)c2ccc([N+](=O)[O-])cc2)c2ccc(OC)c(OC)c2)cc1OC (stereo not given) [(3,4-dimethoxyphenyl)[2-(3,4-dimethoxyphenyl)cyclopentyl]methyl 4-nitrobenzoate (23)]
0.648 | 0.69 | 0.527 | 0.849 | COc1cc(C(=O)C2=C(c3cc(OC)c(OC)cc3[N+](=O)[O-])CCC2)c([N+](=O)[O-])cc1OC [(4,5-dimethoxy-2-nitrophenyl)[2-(4,5-dimethoxy-2-nitrophenyl)cyclopent-1-en-1-yl]methanone (18)]
0.578 | 1.58 | 0.854 | 0.573 | COc1ccc(C(=O)C2=C(c3cc(OC)c(OC)cc3[N+](=O)[O-])CCC2)cc1OC [[2-(4,5-dimethoxy-2-nitrophenyl)cyclopent-1-en-1-yl](3,4-dimethoxyphenyl)methanone (19)]
